Earlier results on two compounds are cited in patent publication US20070260203A1, “Vasoactive agent intraocular implant” (ALLERGAN, INC., priority 2006, published 2007).

For series [1], the target named is T1, endothelin-A receptor (Homo sapiens, UniProt P25101).
T1 sequence (P25101 21-427): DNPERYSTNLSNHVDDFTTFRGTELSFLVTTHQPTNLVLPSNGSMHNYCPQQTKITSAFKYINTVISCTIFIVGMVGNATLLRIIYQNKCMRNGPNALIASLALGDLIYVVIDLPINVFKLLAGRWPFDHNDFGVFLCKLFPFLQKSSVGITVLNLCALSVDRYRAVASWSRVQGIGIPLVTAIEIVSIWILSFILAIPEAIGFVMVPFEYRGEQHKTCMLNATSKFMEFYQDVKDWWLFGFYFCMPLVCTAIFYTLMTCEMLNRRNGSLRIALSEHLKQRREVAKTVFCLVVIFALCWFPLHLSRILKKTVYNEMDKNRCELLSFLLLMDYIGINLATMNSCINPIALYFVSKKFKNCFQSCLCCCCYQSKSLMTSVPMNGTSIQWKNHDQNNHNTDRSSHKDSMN
The note with it: competitive antagonist of both ETA and ETB.

Like-named read-outs stand apart in the source and are kept apart here.

On to `COc1ccccc1Oc1c(NS(=O)(=O)c2ccc(C(C)(C)C)cc2)nc(-c2ncccn2)nc1OCCO` [Bosentan], for which the “affinity for the ETA receptor relative to ETB receptor” value in series [1] is reported as “slightly higher affinity”. Also, the effective concentration (endothelin receptor antagonist, Giersbergen et al. 2005) is 0.3 to 3 µg/mL.

For `CC[C@@H]1C(=O)OC[C@@H]1Cc1cncn1C` [pilocarpine], for the setting “Yoshitomi et al. 2000, rabbit ciliary artery”, the effective concentration was 1 to 10 µM.
